Experimental data from BigSolDB 2.1.

CC(=O)OC(c1ccccc1)C(Cl)(Cl)Cl (stereo unspecified)
solubility (mole fraction)
Details	in acetic acid	in acetone	in acetonitrile	in ethanol	in ethyl acetate	in ethyl formate	in isopropanol	in methanol	in n-propanol
288.15 K	0.0201	0.0931	0.036	0.00865	0.117	0.0868	0.00712	0.00659	0.0105
293.15 K	0.0271	0.111	0.0408	0.0108	0.137	0.105	0.00929	0.00757	0.0132
298.15 K	0.0379	0.133	0.0579	0.0134	0.159	0.132	0.0129	0.00931	0.0164
303.15 K	0.0482	0.158	0.0719	0.0171	0.19	0.165	0.0169	0.0121	0.0216
308.15 K	0.0605	0.193	0.0989	0.0217	0.218	0.198	0.0211	0.0153	0.0287
313.15 K	0.0767	0.232	0.13	0.029	0.251	0.236	0.0279	0.02	0.0375
318.15 K	0.1	0.273	0.168	0.0406	0.287	0.274	0.0382	0.0264	0.0496
323.15 K	0.127	0.32	0.218	0.0555	0.333	0.314	0.0538	0.0342	0.0667
328.15 K	0.167	0.377	0.286	0.0735	0.38	0.363	0.0742	0.0447	0.0905
